Experimental data taken from the NIST ThermoML archive (doi:10.1016/j.jct.2016.03.021).

Assay: wn = mass fraction of the nth substance listed
Conditions: Liquid; for mass density: Vibrating tube method

CN(CCO)CCO [N-methyldiethanolamine] + O
mass density [kg/m3]
Conditions | w1 = 0.1 | w1 = 0.2002 | w1 = 0.3 | w1 = 0.4
333.15 K, 60000 kPa | – | – | – | 1035
333.15 K, 70000 kPa | 1017.9 | 1024.4 | 1031.5 | 1038.4
333.15 K, 80000 kPa | 1021.6 | 1027.9 | 1034.9 | 1041.6
333.15 K, 90000 kPa | 1025.1 | 1031.3 | 1038.1 | 1044.9
333.15 K, 100000 kPa | 1028.5 | 1034.7 | 1041.6 | 1048.2
333.15 K, 110000 kPa | 1031.9 | 1038 | 1044.6 | 1051.3
333.15 K, 120000 kPa | 1035.4 | 1041.4 | 1047.9 | 1054.5
333.15 K, 130000 kPa | 1038.7 | 1044.5 | 1051 | 1057.5
333.15 K, 140000 kPa | 1042 | 1047.7 | 1054.2 | 1060.6
353.15 K, 100 kPa | 978.6 | 985.3 | 992 | 998.1
353.15 K, 500 kPa | 978.7 | 985.3 | 992 | 998.2
353.15 K, 1000 kPa | 978.9 | 985.5 | 992.2 | 998.4
353.15 K, 2000 kPa | 979.3 | 985.9 | 992.7 | 998.8
353.15 K, 5000 kPa | 980.6 | 987.2 | 993.9 | 1000.1
353.15 K, 10000 kPa | 982.8 | 989.4 | 996.1 | 1002.3
353.15 K, 15000 kPa | 984.9 | 991.5 | 998.2 | 1004.4
353.15 K, 20000 kPa | 987 | 993.5 | 1000.3 | 1006.5
353.15 K, 30000 kPa | 991.2 | 997.6 | 1004.3 | 1010.5
353.15 K, 40000 kPa | 995.2 | 1001.6 | 1008.1 | 1014.4
353.15 K, 50000 kPa | 999.1 | 1005.5 | 1012 | 1018.2
353.15 K, 60000 kPa | 1003.1 | 1009.3 | 1015.9 | 1022
353.15 K, 70000 kPa | 1006.9 | 1012.9 | 1019.5 | 1025.6
353.15 K, 80000 kPa | 1010.5 | 1016.6 | 1023 | 1029.1
353.15 K, 90000 kPa | 1014 | 1020 | 1026.4 | 1032.6
353.15 K, 100000 kPa | 1017.7 | 1023.6 | 1029.9 | 1036
353.15 K, 110000 kPa | 1021.2 | 1027 | 1033.3 | 1039.3
353.15 K, 120000 kPa | 1024.6 | 1030.4 | 1036.6 | 1042.5
353.15 K, 130000 kPa | 1028 | 1033.6 | 1039.8 | 1045.8
353.15 K, 140000 kPa | 1031.2 | 1036.8 | 1042.9 | 1048.9
373.15 K, 100 kPa | 964.4 | 970.5 | 976.5 | 981.9
373.15 K, 500 kPa | 964.6 | 970.7 | 976.6 | 982.1
373.15 K, 1000 kPa | 964.9 | 970.9 | 976.9 | 982.4
373.15 K, 2000 kPa | 965.3 | 971.4 | 977.4 | 982.8
373.15 K, 5000 kPa | 966.7 | 972.8 | 978.7 | 984.2
373.15 K, 10000 kPa | 969 | 975 | 981.1 | 986.5
373.15 K, 15000 kPa | 971.2 | 977.2 | 983.4 | 988.8
373.15 K, 20000 kPa | 973.5 | 979.5 | 985.6 | 991.1
373.15 K, 30000 kPa | 977.9 | 983.9 | 989.8 | 995.5
373.15 K, 40000 kPa | 982.1 | 988.2 | 994.1 | 999.8
373.15 K, 50000 kPa | 986.2 | 992.1 | 998.1 | 1003.7
373.15 K, 60000 kPa | 990.1 | 996.1 | 1002.1 | 1007.7
373.15 K, 70000 kPa | 994.2 | 1000 | 1005.9 | 1011.6
373.15 K, 80000 kPa | 998.1 | 1003.8 | 1009.8 | 1015.4
373.15 K, 90000 kPa | 1001.8 | 1007.4 | 1013.3 | 1019
373.15 K, 100000 kPa | 1005.3 | 1011.1 | 1017 | 1022.6
373.15 K, 110000 kPa | 1009 | 1014.7 | 1020.5 | 1026.2
373.15 K, 120000 kPa | 1012.6 | 1018.3 | 1024 | 1029.7
373.15 K, 130000 kPa | 1016 | 1021.5 | 1027.4 | 1033
373.15 K, 140000 kPa | 1019.4 | 1025 | 1030.7 | 1036.3
393.15 K, 100 kPa | 948.6 | 954 | 959.6 | 964.2
393.15 K, 500 kPa | 949 | 954.4 | 959.9 | 964.7
393.15 K, 1000 kPa | 949.2 | 954.6 | 960.1 | 964.8
393.15 K, 2000 kPa | 949.6 | 955.2 | 960.6 | 965.4
393.15 K, 5000 kPa | 951.1 | 956.7 | 962.1 | 966.9
393.15 K, 10000 kPa | 953.6 | 959.2 | 964.7 | 969.5
393.15 K, 15000 kPa | 956 | 961.6 | 967.1 | 972
393.15 K, 20000 kPa | 958.5 | 964 | 969.6 | 974.5
393.15 K, 30000 kPa | 963 | 968.5 | 974.2 | 979.2
393.15 K, 40000 kPa | 967.6 | 973.1 | 978.7 | 983.9
393.15 K, 50000 kPa | 971.8 | 977.3 | 983 | 988.1
393.15 K, 60000 kPa | 976.2 | 981.7 | 987.4 | 992.5
393.15 K, 70000 kPa | 980.4 | 985.9 | 991.6 | 996.8
393.15 K, 80000 kPa | 984.3 | 989.8 | 995.4 | 1000.8
393.15 K, 90000 kPa | 988.3 | 993.7 | 999.4 | 1004.6
393.15 K, 100000 kPa | 992.1 | 997.5 | 1003.1 | 1008.5
393.15 K, 110000 kPa | 995.9 | 1001.4 | 1006.9 | 1012.3
393.15 K, 120000 kPa | 999.6 | 1005 | 1010.6 | 1015.9
393.15 K, 130000 kPa | 1003.1 | 1008.5 | 1014.1 | 1019.4
393.15 K, 140000 kPa | 1006.7 | 1012 | 1017.6 | 1023

viscosity [mPa·s]
Conditions | w1 = 0.1 | w1 = 0.2 | w1 = 0.2002 | w1 = 0.3 | w1 = 0.4
333.15 K, 80000 kPa, Falling or rolling sphere viscometry | 0.661 | – | 0.942 | 1.4 | 2.134
333.15 K, 100000 kPa, Falling or rolling sphere viscometry | 0.672 | – | 0.967 | 1.435 | 2.206
333.15 K, 120000 kPa, Falling or rolling sphere viscometry | 0.68 | – | 0.982 | 1.468 | 2.28
353.15 K, 93 kPa, Concentric cylinders viscometry | – | 0.6205 | – | 0.8505 | 1.186
353.15 K, 100 kPa, Falling or rolling sphere viscometry | – | 0.617 | 0.617 | 0.854 | 1.181
353.15 K, 5000 kPa, Falling or rolling sphere viscometry | – | – | 0.62 | 0.862 | 1.193
353.15 K, 10000 kPa, Falling or rolling sphere viscometry | – | – | 0.625 | 0.869 | 1.204
353.15 K, 20000 kPa, Falling or rolling sphere viscometry | – | – | 0.633 | 0.881 | 1.229
353.15 K, 30000 kPa, Falling or rolling sphere viscometry | – | – | 0.64 | 0.894 | 1.253
353.15 K, 40000 kPa, Falling or rolling sphere viscometry | – | – | 0.647 | 0.907 | 1.276
353.15 K, 60000 kPa, Falling or rolling sphere viscometry | – | – | 0.661 | 0.932 | 1.322
353.15 K, 80000 kPa, Falling or rolling sphere viscometry | – | – | 0.675 | 0.959 | 1.368
353.15 K, 100000 kPa, Falling or rolling sphere viscometry | – | – | 0.691 | 0.997 | 1.419
353.15 K, 120000 kPa, Falling or rolling sphere viscometry | – | – | 0.705 | 1.018 | 1.467
